pIC50: −log10 of the molar value.
Tests used:
[1] = tested on: microtubule network of HT-29 cells; experiment: Immunofluorescence of microtubule network, HT-29; assay type: cell-based, human; conditions: HT-29, 175 nM, 72 h, confocal microscopy
Method: (§1) MCF7, HeLa, and HT-29 cells were grown on round glass coverslips coated with poly-L-lysine (12 mm diameter). To reach appropriate cell confluence, coverslips were manipulated in 6-well plates (3 coverslips/well) seeding 3 ml/well of cells in the exponential growth phase at 2 × 10^4 cells/mL. After 24 h incubation, cells were treated with compound 25 at 175 nM and incubated for 72 h. Cells were washed with PBS, fixed with 4% formaldehyde in PBS for 10 min, permeabilized with 0.5% Triton X-100 (Boehringer Mannheim, Ingelheimam Rhein, Germany) in PBS for 10 min, and blocked with 10% BSA in PBS for 30 min. Then, coverslips were incubated with anti-α-tubulin mouse monoclonal antibody (diluted 1:200 in 3% BSA/PBS) (Sigma-Aldrich Co.) and anti-SQSTM1/p62 rabbit monoclonal antibody (diluted 1:100 in 3% BSA/PBS) (Abcam) for 1 h 30 min. After PBS washing, coverslips were incubated with fluorescent secondary antibodies Alexa Fluor 488 goat anti-mouse IgG and Alexa Fluor 594 anti-rabbit (both diluted 1:400 in 1% BSA/PBS) (Molecular Probes, Invitrogen, Thermo Fischer Scientific) for 1 h in darkness. […] Cells were analysed by confocal microscopy using a LEICA SP5 microscope DMI-6000V model coupled to a LEICA LAS AF software computer.

[2] = tested on: microtubule network of MCF7 cells; experiment: Immunofluorescence of microtubule network, MCF7; assay type: cell-based, human; conditions: MCF7, 175 nM, 72 h, confocal microscopy
Method: as §1

MCF7 cells = experiment: Apoptotic cell death quantification (Annexin V-FITC/PI), MCF7; assay type: cell-based, human; conditions: 72 h
Method: MCF7, HeLa, and HT-29 apoptotic cells were quantified using an Annexin V-FITC/PI apoptosis detection kit (Immunostep, Salamanca, Spain) according to the manufacturer’s guidelines. 1.5 ml/well of cells in the exponential growth phase at 2 × 10^4 cells/mL were seeded onto 12-well plates and left to attach overnight. After 24 h incubation, cells were treated with compound 25 at 87.5 or 175 nM. 72 h post-treatment, attached and floating cells of treated and untreated wells were collected, centrifuged, resuspended in the Annexin V binding buffer, and stained with Annexin V-FITC/PI. Cells were then incubated in darkness at room temperature for 15 min and a total of 30,000 cells were acquired and analysed using the BD Accuri™ C6 Plus Flow Cytometer and Software (version 1.0.264.21, BD Biosciences, San José, CA, USA), respectively. Compounds were dissolved in DMSO and the final solvent concentrations never exceeded 0.5% (v/v). Control wells included cells with 0.5% (v/v) DMSO.

[3] = tested on: MCF7 (human breast carcinoma) cells; experiment: Cell growth assay (XTT), MCF7; assay type: cell-based; conditions: Homo sapiens, MCF7; 72 h drug exposure, XTT; read-out: Antiproliferative activity IC50 MCF7
Summary of the method: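 Cells (1.5 × 10^4 cells/mL for MCF7, HeLa, HEK293; 3 × 10^4 cells/mL for HT-29) attached 24 h, then treated 72 h at 37 °C, 5% CO2. Screened at 1 µM; IC50 versus untreated controls from 10^−5 to 10^−10 M by nonlinear fit. XTT/PMS absorbance at 450 nm after 4 h (MCF7, HeLa) or 6 h (HT-29, HEK293); HT-29 with 10 µM verapamil.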

COc1ccc(S(=O)(=O)N(CC#N)c2cc(OC)c(Br)cc2OC)cc1 [Compound 25, N-(4-bromo-2,5-dimethoxyphenyl)-N-(cyanomethyl)-4-methoxybenzenesulphonamide] was tested, and the “Effect on microtubule network” value [1] was “disrupted the microtubule network”, the “Effect on microtubule network” value [2] was “disrupted the microtubule network” and the Early apoptosis (MCF7 cells; MCF7, 87.5 nM) was 11.7%. For the same molecule, the Late apoptosis (MCF7 cells; MCF7, 87.5 nM) was 5.8%, the “Live (AnV–/PI–)” value (MCF7 cells; MCF7, 87.5 nM) was 82.1% and the Necrosis (MCF7 cells; MCF7, 87.5 nM) was 0.5%. The Apoptotic cells (MCF7 cells; MCF7, 175 nM) was 33%, the Early apoptosis (MCF7 cells; MCF7, 175 nM) was 23.8% and the Late apoptosis (MCF7 cells; MCF7, 175 nM) was 9.5%. For the same molecule, the “Live (AnV–/PI–)” value (MCF7 cells; MCF7, 175 nM) was 65.7%, the Necrosis (MCF7 cells; MCF7, 175 nM) was 1.0% and the Apoptotic cells (MCF7 cells; MCF7, lowest concentration (87.5 nM)) was 18%. The pIC50 [3] was 7.07.

— PMC8205030, “Methoxy and bromo scans on N-(5-methoxyphenyl) methoxybenzenesulphonamides reveal potent cytotoxic compounds, especially against the human breast adenocarcinoma MCF7 cell line” (Journal of Enzyme Inhibition and Medicinal Chemistry, 2021)
